The source of these data is patent publication US11478528B2, “Antimicrobial peptides against Listeria monocytogenes” (MATERIAS S.r.l., priority 2017, dated 2022).

Ends that are not written are not given here.

Series [1] in a line: pH stability assay by Circular Dichroism. To be noted: 10 mM SDS, 24 hours at 37° C. The procedure:
The stability of the Bac-amp1 and IDR-1018 peptides was assessed by studying their secondary structure with Circular Dichroism (CD) spectroscopy in the presence of Sodium Dodecyl Sulfate (SDS) micelles at a concentration of 10 mM to mimic the condition of the cell membrane, in different temperature and pH conditions.
CD assays were performed with a Jasco J-810 Spectropolarimeter equipped with a thermostatted cuvette compartment. The samples were loaded into a 0.1 cm-long quartz cuvette (Hellma Analytics) and the spectrum was analyzed in the 190 nm to 250 nm range at temperatures of 15° C. or 90° C. for each sample.
The CD spectra were acquired at a scanning speed of 20 nm/min, and the recorded results represent an average of 5 scans. The spectra at 90° C. were collected at time zero and after 2 hours to evaluate the thermostability of peptides at high temperatures.
The average ellipticity of the residues ([θ], degrees cm^2 dmol^−1) was calculated using the following equation: [θ]=100θ/cn1 where θ represents ellipticity (m degrees), c is the concentration (mM) of the peptide, n is the number of residues. The secondary structure was calculated through the DICHROWEB site (Whitmore L and Wallace B A, 2004, Nucleic Acids Research 32: 668-673, Whitmore L and Wallace B A, 2008, Biopolymers 89:392-400, Lobley et al, 2002, Bioinformatics 18:211-212), using three different algorithms (SELCON3, CONTIN-LLe CDSSTR) (Sreerema N and Woody R W, 1993, Analytical Biochemistry 287:252-260; Sreerema N et al, 1999, Protein Science 8:370-380, Provencher S W and Glockner J, 1981, Biochemistry 20:33-37, Van Stokkum I H M et al, 1990, Analytical Biochemistry 191:110-118, Compton L A and Johnson W C, 1986, Analytical Biochemistry 155:155-167, Manavalan P and Johnson W C, 1987, Analytical Biochemistry 167:76-85, Sreerama N et al, 2000, Protein Science 8:370-380) and selecting as a comparison data set the SMP180 protein, which includes a high number of soluble and membrane proteins (Abdul-Gader A et al, 2011, Bioinformatics 27:1630-1636). […]

Series [2] relates to L. monocytogenes (LM2 food-isolated strain). Put plainly: Antimicrobial activity of Bac-amp1 coupled gold nanoparticles (CFU count). The settings on record: 0.10 μM to 0.58 μM, 15×10^4 CFU/mL, 6 h at 37° C. The series is classed as cell-based, Listeria monocytogenes. The method, then: The bactericidal efficacy of the functionalized gold nanoparticles prepared in Example 6 was determined against L. monocytogenes (LM2 food-isolated strain) and S. Typhimurium (ATCC 13311 strain) bacteria, which allowed the evaluation of the minimal bactericidal concentration (MBC50), corresponding to the lowest peptide concentration able to cause at least 50% reduction in the number of viable bacteria on agar plates.
L. monocytogenes and S. Typhimurium were grown at 37° C. in Half Fraser (Biorad-Italia) and BPW (Biomerieux-Italia) broths, respectively. […]
Data were determined by numbering the surviving colony forming units (CFU) in the Au—NPs-Bac-amp1 plates and in the Au—NPs plates and were expressed as percent decrease in the number of CFU with respect to the initial number of CFU. […]
Thus, in another set of experiments, the activity of Bac-amp1 coupled nanoparticles was determined incubating 15×10^4 CFU/mL (colony forming units/mL) of Listeria with increasing concentrations, ranging from 0.10 μM to 0.58 μM, of coupled nanoparticles (Au—NPs-Bac-amp1 plates), non-functionalized gold nanoparticles (Au—NPs plates) or free peptides (Bac-amp1 plates) for 6 h at 37° C. The number of viable colonies for the different plates at each concentration tested were counted.

The subject of series [3] is L. monocytogenes biofilms.
Description: The antibiofilm activity of the Bac-amp1 and IDR-1018 peptides was tested by analyzing their ability to inhibit the formation of bacterial biofilms of L. monocytogenes.
The ability of peptides to prevent the formation of L. monocytogenes biofilms was determined according to the microplate assay described in G. Di Bonaventura et al. (2008, J Appl Microbiol 104(6):1552-61) with some modifications.
10 ml of bacterial suspension were then centrifuged the cell pellet was washed in PBS and diluted in BHI broth, reaching the concentration of about 10^3 CFU/ml of standardized inoculum.
The biofilm formation assays were conducted using as target surfaces the Aisi 304 stainless steel discs having a diameter of 14.5 mm (SS) used in the food industry as food contact surfaces. The discs were placed on 24-well Falcon® tissue culture plates, (Thermo Fisher Scientific Inc., Waltham, Mass., USA), with flat bottom and lid. Before use, the stainless steel discs were immersed in 10% acetone and left under weak stirring at room temperature for 30 min. After washing in ultrapure sterile water, the discs were incubated in ethanol 99.8% for 10 minutes under weak stirring and then washed in ultrapure sterile water, dried, packaged and sterilized at 121° C., 1 atm for 15 minutes.
In each set of experiments, 600 μl of standardized inoculum in the presence or absence of each of the peptides at the concentration of 12.5 μM, 25 μM or 50 μM were added to 24-well culture plates containing the previously treated stainless steel materials. BHI Broth was used as a negative control. The plates were incubated at 37° C. for 72 hours under static conditions. The cell count of L. monocytogenes, according to the ISO 11290-2:98 method. After incubation, the SS discs were washed three times with PBS and placed in a new plate to dry at 60° C. for 1 hour. […] Quantitative analysis of biofilm production was performed by adding 1 ml of 33% acetic acid, which removes the dye from the adhered cells. 200 μl of the obtained solution were transferred to a microplate and the crystal violet level (OD) was measured at 492 nm. […]
In the next series the test system is S. thyphimurium (ATCC). In kind it is cell-based, Salmonella typhimurium. The settings on record: 6 h. The procedure: The evaluation of the minimum bactericidal concentration (MBC) was carried out as described in Bilikova et al, (2015, Peptides 68:190-196) and the evaluation of the effective concentration to reduce 50% of the bacterial population (EC50) of the two peptides was carried out with the micro-dilutions of the broth as described in Wang H X and Ng T B (2003, Peptides 24:969-972). Standard deviations for triple incubations of each plate and EC50 evaluation were determined using GraphPad Prism version 6.00 (Graph-Pad Software, La Jolla Calif. USA) Salmonella typhimurium A control stock suspension was prepared in which 10^3 CFU of S. typhimurium (ATCC13311 strain) were inoculated in 10 ml of BPW (Oxoid, Basingstoke, UK). […] Each dilution series included control plates inoculated with DMSO without the peptide and control plates with bacteria alone. In all the investigated experimental conditions, the plate counting method was used to estimate the bactericidal activity of the peptides. Specifically, the number of colonies grown on plates with agar seeded with bacterial suspensions in the absence or in the presence of individual dilutions of peptides was counted and compared. The standard deviations of the triple incubations of each plate were determined using statistical software. […]

Regarding “VRLIVKVRIWRR-NH2 [Bac-amp1, VRLIVKVRIWRR-NH2]”, in series [1], the “pH range with increase in the percentage of unordered random coil structure” value is given as 1.0-4.0. In addition, the “bacterial cell death versus concentration” value in series [2] was “dose-dependent bacterial cell death”. Also, the “MIC, antibiofilm activity” value in series [3] (biofilms) was in the range of 25 to 50 µM. For the same substance, the “MBIC100 (minimum biofilm inhibiting concentration)” value in series [3] (biofilms, 72 h) fell in the range of 25 to 50 µM. In addition, the “reduction of microbial biomass” value in series [3] (concentrations of 25-50 μM, 72 h, 37° C., steel discs) is listed as 100%. The same substance yielded an EC50 in the series on S. thyphimurium (ATCC) of 2830 nM.

What is called EC50 is the concentration that produces a half-maximal response.
